Reference: patent publication US6348471B1, “Pyrimidyl oxyphenylacetic acid derivatives” (Bayer Aktiengesellschaft, priority 1997, dated 2002)

Key:
[1] = test system: Pyrenophora teres; assay: Pyrenophora teres test (barley)/curative; assay type: in vivo; settings: curative, application rate 250 g/ha, evaluation 7 days after inoculation
Procedure: Pyrenophora teres test (barley)/curative Solvent: 10 parts by weight of N-methyl-pyrrolidone Emulsifier: 0.6 parts by weight of alkylaryl polyglycol ether To produce a suitable preparation of active compound, 1 part by weight of active compound is mixed with the stated amounts of solvent and emulsifier, and the concentrate is diluted with water to the desired concentration. To test for curative activity, young plants are sprayed with a conidia suspension of Pyrenophora teres. The plants remain in an incubation cabin at 20° C. and 100% relative atmospheric humidity for 48 hours. The plants are subsequently sprayed with the preparation of active compound at the stated application rate. The plants are placed in a greenhouse at a temperature of approximately 20° C. and a relative atmospheric humidity of approximately 80%.

[2] = test system: Leptosphaeria nodorum; assay: Leptosphaeria nodorum test (wheat)/curative; assay type: in vivo; settings: curative, application rate 125 g/ha, evaluation 10 days after inoculation
Procedure: Leptosphaeria nodorum test (wheat)/curative Solvent: 10 parts by weight of N-methyl-pyrrolidone Emulsifier: 0.6 parts by weight of alkylaryl polyglycol ether To produce a suitable preparation of active compound, 1 part by weight of active compound is mixed with the stated amounts of solvent and emulsifier, and the concentrate is diluted with water to the desired concentration. To test for curative activity, young plants are sprayed with a conidia suspension of Leptosphaeria nodorum. […] The plants are placed in a greenhouse at a temperature of approximately 15° C. and a relative atmospheric humidity of approximately 80%.

[3] = logP by HPLC (EEC directive 79/831 Annex V. A8, gradient method); assay type: physicochemical

chromatographic logP [3]: 2.2
Compound: CNC(=O)C(=NOC)c1ccccc1Oc1nccc(OC(C)C)n1 [Example 1, 2-[2-(4-isopropoxypyrimidin-2-yloxy)-phenyl]-2-methoxyimino-N-methylacetamide]
efficacy [1]: 70%
efficacy [2]: more than 60%
